Legend:
[1] = Free radical trapping (DPPH) effect; conditions: in vitro, DPPH model
From the text: (§1) In the in vitro test, the compounds were solubilised in aqueous solution, either pure or containing DMSO or alcohol.
The overall "free radical trapping" effect was studied in vitro in a model using 1,1-diphenyl-2-picrylhydrazyl (DPPH) as stable free radical, the method being derived from that described by Lamaison et al., Plantes Medic. et phytotheraphie, XXII, 1988, 231-234.

saphena veins of rabbits = experiment: Contraction of isolated saphena veins produced by depolarisation (KCl, hyperpotassic solution); conditions: KCl 40 mM, compound 10 nM to 30 μM, rabbit; for EC50: Oryctolagus cuniculus, read-out: ED50 for increase in contractions of the saphena veins produced by KCl
Protocol: as §1
The contractile effect was measured in vitro:
by the contractile force exerted by vascular rings, either quiescent or stimulated (electrically or by physiological agents) and maintained under isometric conditions, and
The formula (A) compounds and their salts, if any, increase the contraction of animal saphena veins produced by noradrenalin and depolarisation (hyperpotassic solution) without in most cases affecting the arterial contractile responses. For example, 2-hydroxy-2-(2-methoxybenzoyl hydrazino)-indan-1,3-dione and the compound in Example 22 (10 nM to 30 μM) produce a more than 50% increase (ED50 ±0.3 microM) in contractions of the saphena veins of rabbits produced by KCl (40 mM).

[2] = system: oedema and leucocyte migration in the pleural cavity; experiment: Carrageenin-induced pleurisy in the rat; type: in vivo; conditions: intraperitoneally twice 20 mg/kg, six hours after carrageenin
Protocol: (§2) In the in vivo test, the products were administered intravenously in the form of a pure aqueous solution or intraperitoneally in the form of an aqueous solution optionally containing DMSO or orally in solution or in suspension in carboxymethyl cellulose or in a composite aqueous solution containing Tween® and DMSO in certain cases.
The compounds in Examples 1, 3 and 11 and 2-hydroxy-2-(3-methoxybenzoyl hydrazino)-indan-1,3-dione reduce vascular permeability by 10 to 50% when measured one to two hours after intraperitoneal administration of 5-20 mg/kg and 2 to 4 hours after oral administration of 5-20 mg/kg to the rat. The compound in Example 9 and 2-isonicotinoyl hydrazonoindan-1,3-dione, administered intraperitoneally twice in doses of 20 mg/kg, inhibit oedema and leucocyte migration in the pleural cavity, six hours after injection of carrageenin in the model of pleurisy in the rat.

[3] = Toxicity, single oral administration to the mouse; type: in vivo; conditions: 1 g/kg
From the text: The formula (A) compounds and their salts if any have very low toxicity.

[4] = system: basic venous tone of the rat; experiment: Basic venous tone and arterial pressure in vivo (normal and after cardiac arrest); conditions: 1 to 3 picomols intravenously
Protocol: as §2
In vivo, the arterial and venous pressure was measured under normal conditions and after cardiac arrest. During cardiac arrest, the venous tone was calculated from the venous and arterial pressure measured at equilibrium and corrected in dependence on the relative differences in compliance between these two networks (Samar and Coleman, Am. J. Physiol., 1978, 234:H94-100; Yamamoto et al., Am. J. Physiol., 1980, 238:H823-828).

COc1ccc2c(=O)c(=NNc3cccc(F)c3)c(=O)c2c1 [2-(3-fluorophenyl hydrazono)-5-methoxyindan-1,3-dione]
maximum anti-radical effect [1]: more than 95%

COc1ccccc1C(=O)NNC1(O)C(=O)c2ccccc2C1=O [2-hydroxy-2-(2-methoxybenzoyl hydrazino)-indan-1,3-dione]
increase in contractions of the saphena veins produced by KCl (saphena veins of rabbits): more than 50% | EC50 (saphena veins of rabbits): ~0.3 µM

O=C(NN=c1c(=O)c2ccccc2c1=O)c1ccncc1 [2-isonicotinoyl hydrazonoindan-1,3-dione]
inhibition of leucocyte migration in the pleural cavity [2]: inhibit | inhibition of oedema [2]: inhibit

O=c1c(=NNc2ccccc2)c(=O)c2ccccc12 [2-phenyl hydrazonoindan-1,3-dione]
deaths [3]: no deaths | observed effects ([3]; in certain cases): coloured diarrhoea and coloured urine

O=C(NNC1(O)C(=O)c2ccccc2C1=O)c1ccccc1 [Example 3, 2-benzoyl hydrazino-2-hydroxy-indan-1,3-dione]
increase in the basic venous tone [4]: more than 20%

Cc1ccccc1C(=O)NNC1(O)C(=O)c2ccccc2C1=O [Example 6, 2-hydroxy-2-(2-methylbenzoylhydrazino)-indan-1,3-dione]
effect on arterial pressure [4]: without affecting the arterial pressure | increase in the basic venous tone [4]: more than 20%

O=C(NNC1(O)C(=O)c2ccccc2C1=O)c1ccccc1O [Example 9, 2-hydroxy-2-(2-hydroxybenzoylhydrazino)-indan-1,3-dione]
inhibition of leucocyte migration in the pleural cavity [2]: inhibit | inhibition of oedema [2]: inhibit | maximum anti-radical effect [1]: more than 95%

COc1ccc(C(=O)NNC2(O)C(=O)c3ccccc3C2=O)cc1OC [Example 11, 2-(3,4-dimethoxybenzoylhydrazino)-2-hydroxyindan-1,3-dione]
effect on arterial pressure [4]: without affecting the arterial pressure | increase in the basic venous tone [4]: more than 20%

COC(=O)NN=c1c(=O)c2ccccc2c1=O [Example 22, 2-methoxycarbonyl hydrazonoindan-1,3-dione]
increase in contractions of the saphena veins produced by KCl (saphena veins of rabbits): more than 50% | EC50 (saphena veins of rabbits): ~0.3 µM

— patent US5648381A, “Derivatives of indan-1,3-dione and indan-1,2,3-trione, methods of preparing them and therapeutic use thereof” (Innothera, priority 1992, dated 1997)
